Experimental data reported in patent publication US20260183393A1, “IMMUNOSUPPRESSANT-RESISTANT MODIFIED ALLOGENEIC MODIFIED IMMUNE CELLS AND METHODS FOR USE THEREOF” (Beam Therapeutics Inc., priority 2023, published 2026).

What was measured:
alloreactive T cells = test: Mixed leukocyte reaction: priming and proliferation of alloreactive T cells with immunosuppressants; type: cell-based, human; settings: for proliferation of alloreactive T cells: CellTrace Violet-labeled T cells with PBMCs from HLA disparate donors, RPM 10^−2 to 10^−4 mg mL^−1, TAC 10^0 to 10^−2 mg mL^−1, relative to VEH; for proliferation of the T cells: rapamycin 0.001 μg/mL or tacrolimus 0.1 μg/mL, HLA-mismatched PBMCs 1:1, day 7, CellTrace dilution
Description: Purified primary human T cells (effector cells) from a donor (Donor #1) were labeled with CellTrace™ dye and co-cultured at a 1:1 effector-to-target cell ratio with HLA-mismatched peripheral blood mononuclear cells (PBMCs) from another donor (Donor #2) that were pretreated with mitomycin C to inhibit their growth (mitomycin C inhibits cell growth). The cells were co-cultured in the presence of the immunosuppressant rapamycin (0.001 μg/mL) or tacrolimus (0.1 μg/mL) or in the presence of dimethylsulfoxide (DMSO) in place of any immunosuppressant. The immunosuppressant or DMSO was re-administered to the cultures every 48 hours. On day 7, proliferation was measured as dilution of the CellTrace™ dye assessed using flow cytometry. The numbers at the lower-left of each plot indicate the percent of total cells counted falling within the indicated region.
First, human leukocyte antigen (HLA) mismatched peripheral blood mononuclear cells (PBMCs) from a donor were co-cultured in the presence and absence of an immunosuppressant agents with T cells from a different donor that were labeled using a CellTrace dye for measuring cell proliferation. The peripheral blood mononuclear cells (PBMC) cells were treated with mitomycin C prior to being co-cultured to prevent proliferation of the PBMC cells.
It was first determined if immunosuppressants mitigate the in vitro priming of alloreactive T cells. To do so, peripheral blood mononuclear cells and CellTrace Violet-labeled T cells from HLA disparate donors were cultured in the presence of rapamycin (RPM), tacrolimus (TAC) or vehicle (VEH) control. […] Next, it was tested whether immunosuppressants alleviated in vivo T cell-driven rejection of allogeneic HLA-I CAR-T cells. Five cohorts of human immune system (HIS) mice derived from unrelated human donors were injected daily with RPM, TAC, or VEH for 2 weeks, and at 1-day post-treatment initiation all mice were co-infused with an equal amount of allogeneic HLA^+ and HLA-deficient CAR-T cells (FIG. 16A). Cohorts #3 and #4 also received syngeneic human immune system (HIS) mouse-derived CAR-T cells to control for autologous T cell persistence. […]
For the study described in FIGS. 21A to 21C, CellTrace Violet (Thermo Fisher Scientific) CD3^+ T cells (effectors) and CD3-depleted PBMCs (targets) from HLA disparate donors were cultured in triplicate at a 1:1 ratio in complete medium supplemented with 300 U mL^−1 IL-2. […] Frequency of dividing effector CD8^+ and CD4^+ T cells was measured at day 5 and 7 post-stimulation by flow cytometry.

CD19^+ B cells = test: B cell aplasia and 19CAR-T cell persistence in HIS mice; type: in vivo, huCD34-NCG mice; settings: TAC 10 mg kg^−1 daily; 10 days post-T cell infusion
From the text: FIGS. 19B and 19C provide a bar graph of cell concentration (FIG. 19B) and flow cytometry contour plots (FIG. 19C) for peripheral CD19^+ B cells 6 days post-T cell infusion from mice in Groups 1-4. FIGS. 19D and 19E provide bar graphs showing total CD19^+ B cells from individual mouse splenic (FIG. 19D) and bone marrow (FIG. 19E) tissue 10 days post-T cell infusion in Groups 1-4. FIG. 19F provides a bar graph showing geometric median fluorescent intensity (MFI) of CD19 expression on residual peripheral CD22^+ B cells 6 days post-T cell infusion from mice in Groups 1-4. FIG. 19G provides a bar graph showing concentration of peripheral CD22^+CD19^dim B cells 6 days post-T cell infusion from mice in Groups 1-4. […] Statistical significance was calculated by Wilcoxon rank sum test (FIGS. 19B, 19D, and 19E) and Kruskall-Wallace test with Dunn's test for multiple comparisons (FIGS. 19F, 19G, 19I, and 19J).
For the studies described in FIGS. 19A to 19J, huCD34-NCG mice were used in Cohort #6 (n=16), Cohort #7 (n=12), Cohort #8 (n=24), and Cohort #9 (n=12) and were evenly distributed into 4 groups via matched distribution based on degree of human T cell engraftment using StudyLog. […] Endogenous B cell aplasia and persistence of 19CAR-T cells was monitored at 7- and 11-days post-drug treatment via blood draw from the submandibular vein and tissue collection at necropsy.

Nalm6 = test: Cell growth kinetics with rapamycin, Nalm6; type: cell-based, human; settings: RPM at different concentrations
Description: FIGS. 26A to 26E provide histograms and plots showing malignant B cell lines were sensitive to Rapamycin treatment in vitro. FIG. 26A provides histograms showing geometric median fluorescent intensity (MFI) of phosphorylated mTOR (pS2448), S6 (pS235/[…]) and 4EBP1 (pT36/T45) in JeKo-1, Raji and Nalm6 cell lines, as well as primary human monocytes and bulk lymphocytes. FIGS. 26B to 26D relate to an experiment where JeKo-1, Raji and Nalm6 cells were treated with DMSO or Rapamycin (RPM) and then analyzed for phosphorylation level of mTOR (FIG. 26B), S6 (FIG. 26C) and 4EBP1 (FIG. 26D). FIG. 26E provides plots showing JeKo-1, Raji and Nalm6 cell growth kinetics after treatment with DMSO or RPM at different concentrations. Symbols indicate mean and error bars show ±s.e.m.

| Compound | proliferation of alloreactive T cells (alloreactive T cells) | proliferation of the T cells (alloreactive T cells) | allorejection of HLA-I^+ 19CAR-T cells in peripheral blood and spleen (CD19^+ B cells) | in vitro proliferation (Nalm6) |
| --- | --- | --- | --- | --- |
| C=CC[C@@H]1/C=C(\C)C[C@H](C)C[C@H](OC)[C@H]2O[C@@](O)(C(=O)C(=O)N3CCCC[C@H]3C(=O)O[C@H](/C(C)=C/[C@@H]3CC[C@@H](O)[C@H](OC)C3)[C@H](C)[C@@H](O)CC1=O)[C@H](C)C[C@@H]2OC [tacrolimus, Tacrolimus] | severely attenuated the proliferation of alloreactive T cells | hindered proliferation of the T cells | protected HLA-I^+ 19CAR-T cells |  |
| CO[C@H]1C[C@@H]2CC[C@@H](C)[C@@](O)(O2)C(=O)C(=O)N2CCCC[C@H]2C(=O)O[C@H]([C@H](C)C[C@@H]2CC[C@@H](O)[C@H](OC)C2)CC(=O)[C@H](C)/C=C(\C)[C@@H](O)[C@@H](OC)C(=O)[C@H](C)C[C@H](C)/C=C/C=C/C=C/1C [rapamycin, Rapamycin] | severely attenuated the proliferation of alloreactive T cells | hindered proliferation of the T cells |  | inhibited in vitro proliferation |
